Assay results reported in patent US20240173432A1, “Compositions and Methods for Treatment of Myotonic Dystrophy Type 1 with CRISPR/SluCas9” (Vertex Pharmaceuticals Incorporated, priority 2021, published 2024).

Experiments:
[1] = system: CUG foci in primary DM1 patient myoblasts; test: Dual-cut screening: FISH staining of CUG RNA foci; type: cell-based, human; conditions: sgRNA pair, primary DM1 patient myoblasts; for % of CUG foci free nuclei (DNA-PKi): 3 μM DNA-PKi Compound 6 for 48 hours; for % of CUG foci free nuclei (Vehicle): vehicle (DMSO)
Method in brief: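 SluCas9 RNPs (protein:sgRNA 1:3; 20 pmol SluCas9 + 60 pmol sgRNA per guide, paired 1:1) nucleofected into primary DM1 patient myoblasts, then DMSO or 3 μM DNA-PKi Compound 6 for 48 h. At 72 h post-nucleofection cells fixed, FISH-stained with Cy3-PNA(CAG)5 probe plus anti-MBNL1 and Hoechst; % CUG foci-free nuclei by high-content confocal imaging.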

[2] = system: CTG repeat in the 3′ UTR of human DMPK gene; test: Dual-cut screening: CTG repeat excision efficiency by loss-of-signal ddPCR; type: cell-based; conditions: sgRNA pair, primary DM1 patient myoblasts; for Excision efficiency (by ddPCR): 3 μM DNA-PKi Compound 6 for 48 hours; for Excision efficiency by ddPCR (Vehicle): vehicle (DMSO)
Method in brief: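 Upstream and downstream SluCas9 RNPs (20 pmol protein, 60 pmol sgRNA each) mixed 1:1 and nucleofected into primary DM1 patient myoblasts, then treated 48 h with DMSO or 3 μM DNA-PKi Compound 6. Genomic DNA taken 72 h post-nucleofection; excision read as loss of target signal by ddPCR versus a DMPK exon 1 reference.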

Substance	% of CUG foci free nuclei (DNA-PKi) [1] [%]	% of CUG foci free nuclei (Vehicle) [1] [%]	Excision efficiency (by ddPCR) [2]	Excision efficiency by ddPCR (Vehicle) [2]
SluU63 + SluD100 (guide 1 GGGGCTCGAAGGGTCCTTGTAG; guide 2 GTCCAGAGCTTTGGGCAGATGG; guide RNA; listed as DNA, chemistry not fully specified)	89.97	73.15	91.5	58.24
SluU64 + SluD32 (guide 1 GGGCTCGAAGGGTCCTTGTAGC; guide 2 CTTGTGCATGACGCCCTGCTCT; guide RNA; listed as DNA, chemistry not fully specified)	89.99	77.6	85.56	60.75
SluU64 + SluD34 (guide 1 GGGCTCGAAGGGTCCTTGTAGC; guide 2 CGCGCCAGACGCTCCCCAGAGC; guide RNA; listed as DNA, chemistry not fully specified)	91.45	83.68	79.91	76.35
SluU64 + SluD48 (guide 1 GGGCTCGAAGGGTCCTTGTAGC; guide 2 GAGAGCAGCGCAAGTGAGGAGG; guide RNA; listed as DNA, chemistry not fully specified)	88.44	75.45	80.84	47.67
SluU64 + SluD56 (guide 1 GGGCTCGAAGGGTCCTTGTAGC; guide 2 CCAGCCGGCTCCGCCCGCTTCG; guide RNA; listed as DNA, chemistry not fully specified)	87.6	60.36	67.76	42.14
SluU64 + SluD68 (guide 1 GGGCTCGAAGGGTCCTTGTAGC; guide 2 CCTGTAGCCTGTCAGCGAGTCG; guide RNA; listed as DNA, chemistry not fully specified)	89.56	74.94	72.9	46.16
SluU64 + SluD73 (guide 1 GGGCTCGAAGGGTCCTTGTAGC; guide 2 CCAAAACGTGGATTGGGGTTGT; guide RNA; listed as DNA, chemistry not fully specified)	91.02	70.19	74.77	50.69
SluU64 + SluD83 (guide 1 GGGCTCGAAGGGTCCTTGTAGC; guide 2 GTGGGGACAGACAATAAATACC; guide RNA; listed as DNA, chemistry not fully specified)	90.63	76.55	78.97	55.22
SluU64 + SluD100 (guide 1 GGGCTCGAAGGGTCCTTGTAGC; guide 2 GTCCAGAGCTTTGGGCAGATGG; guide RNA; listed as DNA, chemistry not fully specified)	85.89	69.88	68.22	45.16
